Data published in US20220089663A1, “PROTEINS AND FLUOROPHORE-CONTAINING COMPOUNDS SELECTIVE FOR NaV1.7” (MEMORIAL SLOAN KETTERING CANCER CENTER, priority 2019, published 2022).

Legend:
[1] = acute in vivo toxicity after intravenous injection; set-up: species or system mouse
Method: Acute in vivo toxicity. All animal experiments were performed in accordance with protocols approved by the Institutional Animal Care and Use Committee of MSK and followed the National Institute of Health guidelines for animal welfare. Six athymic nude mice 6-8 weeks old were purchased from Envigo RMS, Inc. An intravenous (IV) catheter was placed in tail vein of each mouse and they were anesthetized using Isoflurane (Novaplus, Telangana-India). Anesthesia was maintained using 1.0 to 1.5 L/min of Isoflurane and 2 L/min of oxygen. Three animals were injected with 68 μM, 7 nmol Hsp1a-FL in 100 μL of PBS, and the other three with […], of PBS. Animals were monitored using a rodent surgical monitor (Indus instruments, Houston, Tex.) before, during, and up to 16 minutes after injection. Numeric data points represent averaged values of 5±1 seconds duration. Data was collected before injection, 15 seconds after injection, 5 minutes after injection and 15 minutes after injection. Mouse body core temperature was measured by placing a rectal probe and electronically regulated via a surgical platform. The high-resolution electrocardiogram (EKG) was measured by placing non-invasive electrodes on the 4 paws and electrical contact was assured using a conducting gel (Electrode cream, Indus instruments, Houston, Tex.). Heart rate was automatically calculated from the R-R peaks derived from the EKG signal. Peripheral capillary oxygen saturation (SpO2) was non-invasively measured by placing a clip sensor on the animal's left thigh.
Statistical Analysis. Data were statistically analyzed by generalized estimating equations followed by LSD post hoc test when appropriate using SPSS 23.0. During animal toxicity studies, data points representing loss of signal were excluded from the analysis. Loss of signal was defined by a brief contact loss between the monitoring equipment and the mice (creating a “false” zero or −1 result). Loss of signal was corrected by placing the electrode in close contact to the mice. Average and standard deviations were calculated for each mouse.
Unless otherwise stated, data points represent mean values and error bars represent the standard deviation of biological replicates (mean±SEM). All p-values were calculated using a Student's unpaired t-test. Statistical significance was considered for p-values<0.05 and as follows: ns=not significant, *p<0.05, **p<0.01, ***p<0.001. Mann-Whitney tests were used for analysis of the unpaired samples (e.g. vital signs in mice injected with Hsp1a and mice from the control group) and the Wilcoxon test was used for analysis of paired samples (e.g. vital signs from same mouse before and after injection). Statistical significance was determined with alpha=0.05. Analysis and figures were prepared in GraphPad Prism 8.

hNav1.7 = biological target: T1, hNav1.7 (Homo sapiens, UniProt Q15858); test: automated whole-cell patch clamp (QPatch 16X), HEK293-hNav1.7; format: cell-based
T1 construct: host or cells: HEK293

in vitro = details: human, serum
[2] = 10 μM, human serum, 37° C.
mouse sciatic nerves = test: epifluorescence imaging (IVIS Spectrum) of sciatic nerves and organs 30 min after injection; format: in vivo; details: 30 minutes after systemic injection
Method: Animal Model. Female athymic nude mice (4-8 week-old, athymic-Nude (outbred) (Stock #: 088; Envigo, USA) were allowed to acclimatize at the Memorial Sloan Kettering Cancer Center (MSK) vivarium for 1 week with ad libitum food and water prior to the experimental procedure. For imaging experiments, animals were sacrificed 30 min post-tail vein injection of Hs1a-FL, Hs1a/Hs1a-FL, Hsp1a-FL, Hsp1a/Hsp1a-FL, or PBS. All animal experiments were performed in accordance with institutional guidelines and approved by the IACUC of MSK, following NIH guidelines for animal welfare.
Epifluorescence Imaging. Animals were intravenously injected with Hsp1a-FL (7 nmol, 68 μM of Hsp1a-FL in 100 μL of PBS, n=9), or Hs1a-FL (4 nmol, 45 μM of Hs1a-FL in 100 μL of PBS, n=3). To assess the specificity of the Hsp1a-FL or Hs1a-FL accumulation, animals were injected with a combination of Hsp1a and Hsp1a-FL (Hsp1a-FL, 68 μM, 7 nmol and Hsp1a 204 μM, 21 nmol in 100 μL PBS, n=9), Hs1a and Hs1a-FL (Hs1a-FL, 45 μM, 4 nmol and Hs1a, 120 μM, 12 nmol in 100 μL PBS, n=3) or PBS (n=9). Animals were sacrificed 30 min post-injection and epifluorescence images obtained. Epifluorescence images of the right sciatic nerve (RSN) and the left sciatic nerve (LSN) were obtained in situ. Epifluorescence of the biodistribution of the peptides in excited RSN, LSN, muscle, heart, kidney, liver, and brain were acquired with IVIS Spectrum (PerkinElmer) using a predefined GFP filterset (e.g., excitation=465/30 nm, emission=520-580 nm) based on the particular fluorophore employed in the compounds. Autofluorescence was removed through spectral unmixing. Semiquantitative analysis of the Hsp1a-FL or Hs1a-FL signal was conducted by measuring the average radiant efficiency (in units of unit [p/s/cm^2/sr]/[μW/cm^2]) in regions of interest (ROIs) that were placed on all resected organs under white light guidance.

T1 sequence (Q15858 whole entry): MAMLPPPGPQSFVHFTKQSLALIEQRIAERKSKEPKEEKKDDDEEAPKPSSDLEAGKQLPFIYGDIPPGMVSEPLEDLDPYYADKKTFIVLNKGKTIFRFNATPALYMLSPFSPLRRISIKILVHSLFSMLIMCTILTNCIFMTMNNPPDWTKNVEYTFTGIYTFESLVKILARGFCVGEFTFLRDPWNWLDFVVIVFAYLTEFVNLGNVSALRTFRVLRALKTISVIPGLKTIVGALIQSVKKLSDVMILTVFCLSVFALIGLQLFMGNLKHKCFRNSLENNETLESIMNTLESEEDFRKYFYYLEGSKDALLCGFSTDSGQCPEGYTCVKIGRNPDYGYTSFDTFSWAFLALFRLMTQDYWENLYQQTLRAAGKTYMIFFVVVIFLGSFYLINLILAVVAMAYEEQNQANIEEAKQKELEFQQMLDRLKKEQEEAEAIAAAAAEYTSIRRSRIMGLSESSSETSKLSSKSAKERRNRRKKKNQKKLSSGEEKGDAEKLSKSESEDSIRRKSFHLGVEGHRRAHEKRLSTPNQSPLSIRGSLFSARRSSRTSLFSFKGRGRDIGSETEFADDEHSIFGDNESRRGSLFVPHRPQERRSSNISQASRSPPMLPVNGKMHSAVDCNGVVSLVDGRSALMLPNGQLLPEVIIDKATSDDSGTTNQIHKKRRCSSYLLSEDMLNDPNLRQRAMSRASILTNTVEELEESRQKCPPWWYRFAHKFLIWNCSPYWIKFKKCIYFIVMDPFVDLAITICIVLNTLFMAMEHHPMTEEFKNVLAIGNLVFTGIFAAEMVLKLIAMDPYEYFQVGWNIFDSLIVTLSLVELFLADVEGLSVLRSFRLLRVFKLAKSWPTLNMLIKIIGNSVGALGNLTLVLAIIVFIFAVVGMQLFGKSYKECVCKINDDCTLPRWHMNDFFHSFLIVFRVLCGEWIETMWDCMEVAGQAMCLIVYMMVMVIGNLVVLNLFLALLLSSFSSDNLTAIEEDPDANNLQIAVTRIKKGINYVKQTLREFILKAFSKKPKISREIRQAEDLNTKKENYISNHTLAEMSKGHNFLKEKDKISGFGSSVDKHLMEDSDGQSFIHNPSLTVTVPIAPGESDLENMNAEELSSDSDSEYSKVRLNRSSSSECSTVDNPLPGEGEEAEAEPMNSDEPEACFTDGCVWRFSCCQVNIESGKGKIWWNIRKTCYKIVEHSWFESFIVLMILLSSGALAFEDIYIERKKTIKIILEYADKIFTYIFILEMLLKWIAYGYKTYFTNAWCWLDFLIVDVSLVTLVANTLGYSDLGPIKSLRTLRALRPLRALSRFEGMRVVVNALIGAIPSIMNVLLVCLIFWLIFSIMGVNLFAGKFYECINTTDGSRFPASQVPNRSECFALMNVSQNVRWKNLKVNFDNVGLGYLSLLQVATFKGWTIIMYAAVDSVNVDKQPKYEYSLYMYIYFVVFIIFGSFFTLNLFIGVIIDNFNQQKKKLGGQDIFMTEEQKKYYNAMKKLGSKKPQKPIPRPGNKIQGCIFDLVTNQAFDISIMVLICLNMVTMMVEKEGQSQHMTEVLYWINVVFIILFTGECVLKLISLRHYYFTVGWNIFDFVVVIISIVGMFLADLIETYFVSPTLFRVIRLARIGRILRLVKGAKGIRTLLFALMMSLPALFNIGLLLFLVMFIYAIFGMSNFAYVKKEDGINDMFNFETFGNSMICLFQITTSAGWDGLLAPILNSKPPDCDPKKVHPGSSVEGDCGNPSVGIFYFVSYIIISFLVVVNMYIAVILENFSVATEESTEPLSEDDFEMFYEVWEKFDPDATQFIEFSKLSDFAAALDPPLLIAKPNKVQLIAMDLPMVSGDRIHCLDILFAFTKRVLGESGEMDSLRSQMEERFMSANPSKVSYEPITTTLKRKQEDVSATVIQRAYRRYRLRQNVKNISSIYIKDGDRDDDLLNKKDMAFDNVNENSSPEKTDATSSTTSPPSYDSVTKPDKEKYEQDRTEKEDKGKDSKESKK
T1 sequence (Q07699 19-218, further chain): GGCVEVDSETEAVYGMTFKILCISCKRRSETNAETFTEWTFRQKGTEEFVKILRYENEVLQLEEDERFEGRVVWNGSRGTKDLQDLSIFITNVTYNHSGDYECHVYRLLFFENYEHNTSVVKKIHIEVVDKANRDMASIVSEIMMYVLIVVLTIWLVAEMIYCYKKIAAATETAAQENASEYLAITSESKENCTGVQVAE

For `CC[C@H](C)[C@H](NC(=O)[C@H](CCCCN)NC(=O)[C@@H]1CSSC[C@@H]2NC(=O)[C@@H]3CCCN3C(=O)[C@H](CCCNC(=N)N)NC(=O)[C@H](CCC(=O)O)NC(=O)[C@H](CO)NC(=O)[C@H](CC(=O)O)NC(=O)[C@@H]3CSSC[C@H](NC(=O)[C@H](C(C)C)NC(=O)[C@H](CC(C)C)NC(=O)CNC(=O)[C@H](CCC(=O)O)NC(=O)[C@H](CSSC[C@H](NC(=O)[C@@H](N)Cc4ccc(O)cc4)C(=O)N[C@@H](CCC(N)=O)C(=O)N[C@@H](CCCCN)C(=O)N[C@@H](Cc4ccccc4)C(=O)N[C@@H](CC(C)C)C(=O)N[C@@H](Cc4c[nH]c5ccccc45)C(=O)N[C@@H]([C@@H](C)O)C(=O)N3)NC2=O)C(=O)N[C@@H](CCCNC(=N)N)C(=O)N[C@@H](CC(C)C)C(=O)N[C@@H](Cc2c[nH]c3ccccc23)C(=O)N1)C(=O)N[C@@H](CC(N)=O)C(N)=O` [Hsp1a], the average core temperature ([1]; 15 seconds post injection) was 34.5 °C, the average core temperature ([1]; 5 min post-injection) was 34.6 °C and the average core temperature ([1]; 15 minutes post-injection) was 34.6 °C. For the same compound, the EKG pattern ([1]; before and up to 16 minutes after injection) was “No changes were observed”, the “pIC50 difference to sHsp1a on hNav1.7” value (hNav1.7) was “no significant pIC50s difference” and the IC50 (hNav1.7; HEK293 cells stably expressing human channel, read-out: IC50 Nav1.7) was 13 nM.

For `CSCC[C@@H]1NC(=O)[C@H](CC(C)C)NC(=O)[C@H](CCCNC(=N)N)NC(=O)[C@H](CO)NC(=O)[C@@H]2CSSC[C@@H]3NC(=O)[C@H](CO)NC(=O)CNC(=O)[C@H]([C@@H](C)O)NC(=O)[C@H](CSSC[C@H](N)C(=O)N[C@@H](CCCCN)C(=O)NCC(=O)N[C@@H](CCCCN)C(=O)NCC(=O)N[C@@H](C)C(=O)N[C@@H](CCCCN)C(=O)N2)NC(=O)[C@H](CSSC[C@@H](C(N)=O)NC(=O)[C@H](CCCCN)NC(=O)CNC(=O)[C@H](CO)NC(=O)[C@H](CCCNC(=N)N)NC3=O)NC(=O)[C@H](CC(=O)O)NC(=O)[C@H](Cc2ccc(O)cc2)NC1=O` [MVIIA], the remaining at 24 h (in vitro) was 50%.

In the case of `CC[C@H](C)[C@@H]1NC(=O)[C@H](CCCNC(=N)N)NC(=O)[C@H](CC(=O)O)NC(=O)[C@H](CCSC)NC(=O)[C@H](CCCNC(=N)N)NC(=O)CNC(=O)CNC(=O)[C@H](Cc2ccccc2)NC(=O)[C@@H](NC(=O)[C@H](CO)NC(=O)[C@H](CO)NC(=O)[C@H](CCCNC(=N)N)NC(=O)[C@H](CCCNC(=N)N)NC(=O)[C@H](CC(C)C)NC(=O)[C@@H](N)CO)CSSC[C@@H](C(=O)N[C@@H](CC(N)=O)C(=O)N[C@@H](CO)C(=O)N[C@@H](Cc2ccccc2)C(=O)N[C@@H](CCCNC(=N)N)C(=O)N[C@@H](Cc2ccc(O)cc2)C(=O)O)NC(=O)CNC(=O)[C@H](CC(C)C)NC(=O)CNC(=O)[C@H](CO)NC(=O)[C@H](CCC(N)=O)NC(=O)[C@H](C)NC(=O)CNC1=O` [hANP, reference compound], the “time of incubation in which degraded” value [2] is reported as 1 to 2 h.

With “YCQK(BODIPY665)FLWTCDSERPCCEGLVCRLWCKIN-NH2 (N-terminal YCQK(BODIPY665) extension; C-terminal amide) [Hsp1a-BODIPY665]” the “biodistribution in various tissues” value (mouse sciatic nerves) was “limited to the peripheral nervous system”.

For “YCQK(CY7.5)FLWTCDSERPCCEGLVCRLWCKIN-NH2 (N-terminal YCQK(CY7.5) extension; C-terminal amide) [Hsp1a-CY7.5]”, the “biodistribution in various tissues” value (mouse sciatic nerves) was “limited to the peripheral nervous system”.

For “YCQK(DY-684)FLWTCDSERPCCEGLVCRLWCKIN-NH2 (N-terminal YCQK(DY-684) extension; C-terminal amide) [Hsp1a-DY-684]”, the “biodistribution in various tissues” value (mouse sciatic nerves) was “limited to the peripheral nervous system”.

With “YCQK(IR-800)FLWTCDSERPCCEGLVCRLWCKIN-NH2 (N-terminal YCQK(IR-800) extension; C-terminal amide) [Hsp1a-IR800]” the “biodistribution in various tissues” value (mouse sciatic nerves) was “limited to the peripheral nervous system”.

For “YCQK(Jane1ia669)FLWTCDSERPCCEGLVCRLWCKIN-NH2 (N-terminal YCQK(Janelia669) extension; C-terminal amide) [Hsp1a-Janelia669]”, the “biodistribution in various tissues” value (mouse sciatic nerves) was “limited to the peripheral nervous system”.
